Here are results for 22 compounds from PubChem BioAssay AID330 (DTP/NCI, 2004).

Values joined by “and” are separate entries in the source; they are usually repeats but may differ in a detail not shown here. Identical values can stand only once. Inconclusive results and toxic doses are left out.

This assay relates to P388 leukemia ip, CD2F1 mice, survival T/C. Description: NCI In Vivo Anticancer Drug Screen. Data for tumor model P388 Leukemia (intraperitoneal) in CD2F1 (CDF1) mice. The following applies: endpoint: median survival time, higher = longer survival. The essentials:
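Mice carrying the transplanted tumor received test compound or vehicle. Survival was recorded in each group, and the value is the treated-group measurement divided by that of the vehicle-treated control group.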

Setting [1] is: dose: 25.0 mg/kg/injection, schedule: Q04DX003 (ip), vehicle: saline with Tween-80.
Setting [2] is: dose: 60.0 mg/kg/injection, schedule: Q01DX005 (ip), vehicle: saline with Tween-80.
Where [3] appears, read: dose: 120.0 mg/kg/injection, schedule: Q01DX005 (ip), vehicle: saline with Tween-80.
[4] abbreviates: dose: 240.0 mg/kg/injection, schedule: Q01DX005 (ip), vehicle: saline with Tween-80.
[5] abbreviates: dose: 50.0 mg/kg/injection, schedule: Q01DX009 (ip), vehicle: saline with Tween-80.
The mark [6] stands for this setting: dose: 100.0 mg/kg/injection, schedule: Q04DX003 (ip), vehicle: saline with Tween-80.
The mark [7] stands for this setting: dose: 200.0 mg/kg/injection, schedule: Q04DX003 (ip), vehicle: saline with Tween-80.
Where [8] appears, read: dose: 50.0 mg/kg/injection, schedule: Q01DX009 (ip), vehicle: saline.

`Cc1ccc(NC(=O)N(CCCl)N=O)c(C)c1`: the T/C (dose: 16.5 mg/kg/injection, schedule: Q04DX003 (ip), vehicle: saline with Tween-80) is 190 % of control; the T/C under setting [1] is 250 % of control; the T/C (dose: 37.5 mg/kg/injection, schedule: Q04DX003 (ip), vehicle: saline with Tween-80) was 90 % of control.
Consider `Cc1nc2c(o1)CCCC2`, for which the T/C is, setting by setting: under setting [2], 95 % of control; under setting [3], 90 % of control; under setting [4], 99 % of control.
`C/C(=N\NC(=O)c1ccccc1)c1cccc(/C(C)=N/NC(=O)c2ccccc2)n1.CC(=O)[O-].CC(=O)[O-].[Zn+2]`: the T/C by setting is: (dose: 100.0 mg/kg/injection, schedule: Q01DX001 (ip), vehicle: saline with Tween-80) 95 % of control; (dose: 200.0 mg/kg/injection, schedule: Q01DX001 (ip), vehicle: saline with Tween-80) 104 % of control; (dose: 400.0 mg/kg/injection, schedule: Q01DX001 (ip), vehicle: saline with Tween-80) 100 % of control.
As for `NS(=O)(=O)c1ccc(N=Cc2c3ccccc3nc3cc(Cl)ccc23)cc1`, the T/C runs as follows: (dose: 50.0 mg/kg/injection, schedule: Q01DX005 (ip), vehicle: saline with Tween-80) 91 % of control; (dose: 100.0 mg/kg/injection, schedule: Q01DX005 (ip), vehicle: saline with Tween-80) 88 % of control; (dose: 200.0 mg/kg/injection, schedule: Q01DX005 (ip), vehicle: saline with Tween-80) 88 % of control.
For `Cn1c(Cl)c(/C=C2/N=C(c3ccccc3)OC2=O)c2ccccc21`, the T/C was 94 % of control (dose: 100.0 mg/kg/injection, schedule: Q01DX001 (ip), vehicle: Klucel (hydroxypropylcellulose) (HPC)); 94 % of control (dose: 200.0 mg/kg/injection, schedule: Q01DX001 (ip), vehicle: Klucel (hydroxypropylcellulose) (HPC)); 94 % of control (dose: 400.0 mg/kg/injection, schedule: Q01DX001 (ip), vehicle: Klucel (hydroxypropylcellulose) (HPC)).
For the compound `CC(C)C1OCN2C(C)CCCC12` (configuration not stated), the T/C reads like this: (dose: 50.0 mg/kg/injection, schedule: Q01DX005 (ip), vehicle: saline) 105 % of control; (dose: 100.0 mg/kg/injection, schedule: Q01DX005 (ip), vehicle: saline) 111 % of control; (dose: 200.0 mg/kg/injection, schedule: Q01DX005 (ip), vehicle: saline) 111 % of control.
Consider `CCN1C(=O)CC(SC2CC(=O)N(CC)C2=O)C1=O` (configuration not stated), for which the T/C by setting is: (dose: 50.0 mg/kg/injection, schedule: Q01DX005 (ip), vehicle: Klucel (hydroxypropylcellulose) (HPC)) 99 % of control; (dose: 100.0 mg/kg/injection, schedule: Q01DX005 (ip), vehicle: Klucel (hydroxypropylcellulose) (HPC)) 95 % of control; (dose: 200.0 mg/kg/injection, schedule: Q01DX005 (ip), vehicle: Klucel (hydroxypropylcellulose) (HPC)) 99 % of control.
In the case of `O=C1C(N2CC2)=C(N2CC2)C(=O)c2ncncc21`, the T/C (dose: 2.5 mg/kg/injection, schedule: Q01DX005 (ip), vehicle: saline) was 105 % of control; the T/C (dose: 5.0 mg/kg/injection, schedule: Q01DX005 (ip), vehicle: saline) is 104 % of control and 113 % of control; the T/C (dose: 10.0 mg/kg/injection, schedule: Q01DX005 (ip), vehicle: saline) was 107 % of control.
In the case of `CCOC(=O)N1C(=O)C2C3CCC(C2C1=O)C1C2C(=O)N(C(=O)OCC)C(=O)C2C31` (configuration not stated), the T/C runs as follows: (dose: 12.5 mg/kg/injection, schedule: Q01DX009 (ip), vehicle: saline with Tween-80) 103 % of control; (dose: 25.0 mg/kg/injection, schedule: Q01DX009 (ip), vehicle: saline with Tween-80) 104 % of control and 111 % of control; under setting [5], 115 % of control; (dose: 100.0 mg/kg/injection, schedule: Q01DX009 (ip), vehicle: saline with Tween-80) 157 % of control; (dose: 200.0 mg/kg/injection, schedule: Q01DX009 (ip), vehicle: saline with Tween-80) 222 % of control.
`NNP(=O)(NN)C(Cl)(Cl)Cl`: the T/C reads like this: (dose: 15.0 mg/kg/injection, schedule: Q01DX005 (ip), vehicle: saline) 101 % of control; (dose: 30.0 mg/kg/injection, schedule: Q01DX005 (ip), vehicle: saline) 100 % of control; (dose: 60.0 mg/kg/injection, schedule: Q01DX005 (ip), vehicle: saline) 108 % of control and 114 % of control.
With `O=C1CCC(c2n[nH]c(=S)o2)N1` (configuration not stated), the T/C reads like this: under setting [2], 104 % of control; under setting [3], 105 % of control; under setting [4], 108 % of control.
`CCCCCCCCCCCCCCCCOc1ccc2c(c1OCCCCCCCCCCCCCCCC)OC(C)(C)C=C2C`: the T/C is 88 % of control (dose: 100.0 mg/kg/injection, schedule: Q04DX002 (ip), vehicle: saline with Tween-80) and 86 % of control (dose: 200.0 mg/kg/injection, schedule: Q04DX002 (ip), vehicle: saline with Tween-80).
With `[NH-]C(CC(N)=O)C(=O)O.[NH-]C(CC(N)=O)C(=O)O.[Pd+2]` (configuration not stated), the T/C reads like this: (dose: 6.25 mg/kg/injection, schedule: Q04DX003 (ip), vehicle: saline with Tween-80) 92 % of control; (dose: 12.5 mg/kg/injection, schedule: Q04DX003 (ip), vehicle: saline with Tween-80) 96 % of control; under setting [1], 100 % of control; (dose: 50.0 mg/kg/injection, schedule: Q04DX003 (ip), vehicle: saline with Tween-80) 98 % of control; under setting [6], 107 % of control; under setting [7], 100 % of control.
Turning to `O=[N+]([O-])c1ccc(N/N=C\c2c(Cl)n(-c3ccccc3)c3ccccc23)cc1`, the T/C is 93 % of control under setting [6]; 90 % of control under setting [7]; 95 % of control (dose: 400.0 mg/kg/injection, schedule: Q01DX001 (ip), vehicle: saline); 91 % of control (dose: 400.0 mg/kg/injection, schedule: Q04DX003 (ip), vehicle: saline with Tween-80).
On to `COC1=CC(=O)C(=O)C(C(C)(C)C)=C1`, for which the T/C (dose: 15.0 mg/kg/injection, schedule: Q01DX005 (ip), vehicle: Klucel (hydroxypropylcellulose) (HPC)) is 104 % of control and the T/C (dose: 30.0 mg/kg/injection, schedule: Q01DX005 (ip), vehicle: Klucel (hydroxypropylcellulose) (HPC)) was 86 % of control.
`CCc1c(CNc2ccc(Cl)c(Cl)c2)ccc2nc(N)nc(N)c12`: for the setting “dose: 12.5 mg/kg/injection, schedule: Q01DX005 (ip), vehicle: Klucel (hydroxypropylcellulose) (HPC)”, the T/C is 109 % of control.
Regarding `O=C1NN2CCN=C2c2cnccc21`, the T/C runs as follows: (dose: 100.0 mg/kg/injection, schedule: Q04DX002 (ip), vehicle: saline) 98 % of control; (dose: 200.0 mg/kg/injection, schedule: Q04DX002 (ip), vehicle: saline) 93 % of control; (dose: 400.0 mg/kg/injection, schedule: Q04DX002 (ip), vehicle: saline) 92 % of control.
For `CCC1CN2CCC3(C(=O)Nc4ccccc43)C2CC1/C(=C/OC)C(=O)OC` (configuration not stated), the T/C was 102 % of control (dose: 6.25 mg/kg/injection, schedule: Q01DX009 (ip), vehicle: saline); 100 % of control (dose: 12.5 mg/kg/injection, schedule: Q01DX009 (ip), vehicle: saline); 102 % of control (dose: 25.0 mg/kg/injection, schedule: Q01DX009 (ip), vehicle: saline); 100 % of control under setting [5]; 103 % of control under setting [8].
Take `CC(=O)OC1C=CC(=O)C1` (configuration not stated): the T/C reads like this: (dose: 7.5 mg/kg/injection, schedule: Q01DX005 (ip), vehicle: saline with Tween-80) 122 % of control; (dose: 15.0 mg/kg/injection, schedule: Q01DX005 (ip), vehicle: saline with Tween-80) 116 % of control.
Take `O=S(=O)(CC(O)C(Cl)(Cl)Cl)NNc1ccccc1` (configuration not stated): the T/C is 99 % of control under setting [8] and 112 % of control (dose: 100.0 mg/kg/injection, schedule: Q01DX009 (ip), vehicle: saline).
For `Cn1c(=O)c2nsnc2n(C)c1=O`, the T/C was 110 % of control (dose: 50.0 mg/kg/injection, schedule: Q04DX002 (ip), vehicle: Klucel (hydroxypropylcellulose) (HPC)); 100 % of control and 110 % of control (dose: 100.0 mg/kg/injection, schedule: Q04DX002 (ip), vehicle: Klucel (hydroxypropylcellulose) (HPC)); 107 % of control (dose: 200.0 mg/kg/injection, schedule: Q04DX002 (ip), vehicle: Klucel (hydroxypropylcellulose) (HPC)).
Consider `COc1ccc(CC#N)c(OC)c1`, for which the T/C (dose: 12.5 mg/kg/injection, schedule: Q01DX009 (ip), vehicle: other) was 102 % of control and the T/C (dose: 25.0 mg/kg/injection, schedule: Q01DX009 (ip), vehicle: other) is 102 % of control.
